From paper PMC9036794, “Improving astaxanthin production in Escherichia coli by co-utilizing CrtZ enzymes with different substrate preference” (Microbial Cell Factories, 2022) come the findings set out here.

Format in all cases: cell-based
Assay [1] deals with T1, PCcrtZ (Paracoccus sp. PC1, UniProt Q44262).
T1 construct: gene crtZ; synthesized gene, integrated into E. coli chromosome (manA site) under P-trc; whole-cell read-out
T1 sequence (Q44262 1-162): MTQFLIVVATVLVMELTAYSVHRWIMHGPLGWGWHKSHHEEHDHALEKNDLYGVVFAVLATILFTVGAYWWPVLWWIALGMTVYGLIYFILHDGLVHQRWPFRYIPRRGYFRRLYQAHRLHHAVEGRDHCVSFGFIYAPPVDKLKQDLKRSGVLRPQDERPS
Put plainly: astaxanthin formed in canthaxanthin-producing E. coli, HPLC. The following applies: engineered E. coli Can004 background (Ast016, Ast017), shake flask, 30 °C; conversion to astaxanthin; whole-cell titre only.

Assay [2] has as its target T2, PAcrtZ (Pantoea agglomerans, UniProt E9LFG1).
T2 construct: gene crtZ; gene integrated into E. coli chromosome (manA site) under P-trc; whole-cell read-out
Described as above. Conditions: engineered E. coli Can004 background (Ast014, Ast015), shake flask, 30 °C; conversion to astaxanthin; whole-cell titre only.

The target in assay [3] is T3, crtW* (Brevundimonas sp. NBRC 101024, UniProt Q4W8B8).
T3 construct: integrated into E. coli chromosome (mgsA, lacZ sites) under P-trc; whole-cell read-out
T3 sequence (Q4W8B8 1-244): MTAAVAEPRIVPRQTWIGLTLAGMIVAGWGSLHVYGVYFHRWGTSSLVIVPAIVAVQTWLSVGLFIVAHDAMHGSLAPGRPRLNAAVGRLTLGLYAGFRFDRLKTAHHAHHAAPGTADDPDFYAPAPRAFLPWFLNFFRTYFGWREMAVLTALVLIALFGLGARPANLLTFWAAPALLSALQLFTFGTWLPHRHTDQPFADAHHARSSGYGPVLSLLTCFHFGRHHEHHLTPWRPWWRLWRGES
Put plainly: canthaxanthin formed in beta-carotene-producing E. coli, HPLC. Conditions: engineered E. coli (Can003, Can004), shake flask, 30 °C; conversion to canthaxanthin; whole-cell titre only.

Assay [4] addresses T2, PAcrtZ. Briefly: zeaxanthin formed in beta-carotene-producing E. coli, HPLC. The following applies: engineered E. coli CAR032 background (Zea003, Zea004), shake flask, 30 °C; conversion to zeaxanthin; whole-cell titre only.
Assay [5] concerns the target T1, PCcrtZ. Described as above. The following applies: engineered E. coli CAR032 background (Zea001, Zea002), shake flask, 30 °C; conversion to zeaxanthin, weak; whole-cell titre only. The source says:
zeaxanthin formed in beta-carotene-producing E. coli, HPLC on PCcrtZ | PCcrtZ from Paracoccus sp.

T2 sequence (E9LFG1 entry or part of it): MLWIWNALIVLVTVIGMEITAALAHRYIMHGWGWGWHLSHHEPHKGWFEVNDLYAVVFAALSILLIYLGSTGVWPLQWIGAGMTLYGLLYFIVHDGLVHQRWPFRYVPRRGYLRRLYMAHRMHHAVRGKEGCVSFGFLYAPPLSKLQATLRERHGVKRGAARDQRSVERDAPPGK

As for `CC1=C(/C=C/C(C)=C/C=C/C(C)=C/C=C/C=C(C)/C=C/C=C(C)/C=C/C2=C(C)C(=O)CCC2(C)C)C(C)(C)CCC1=O` [canthaxanthin], the “astaxanthin formed in canthaxanthin-producing E. coli, HPLC” value in assay [1] was “Ast016 (Can004 with one copy of PCcrtZ) produced similar amounts of astaxanthin”; in assay [2] it was “Ast014 (Can004 with one copy of PAcrtZ)”.

For `CC1=C(/C=C/C(C)=C/C=C/C(C)=C/C=C/C=C(C)/C=C/C=C(C)/C=C/C2=C(C)CCCC2(C)C)C(C)(C)CCC1` [β-carotene], the “canthaxanthin formed in beta-carotene-producing E. coli, HPLC” value in assay [3] was “CrtW converts β-carotene into keto-carotenoids”. Also, the “zeaxanthin formed in beta-carotene-producing E. coli, HPLC” value in assay [4] is “PAcrtZ from P. agglomerans therefore exhibited a substrate preference for β-carotene”; in assay [5] it was “PCcrtZ from Paracoccus sp. PC1 showed weak activity in the conversion of β-carotene into zeaxanthin”.
